SMILES strings stand for the structures.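 Tested at 5 concentrations; 48 h exposure; 96-well plates; endpoints linearly interpolated, else capped at highest concentration. At the TGI there is no net growth.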 Bounds are passed on as bounds.

For orientation: TGI means the concentration giving total growth inhibition.

Assay in all cases: DTP human tumour cell line panel, 48 h
For test [1], the system named is UACC-62 melanoma.
Test [2] has as its system SNB-75 CNS.
In test [3] the test system is M14 melanoma.
Test [4] has as its system SN12C renal.
For test [5], the system named is HCT-116 colon.
For test [6], the system named is HCC-2998 colon.
Test [7] concerns 786-0 renal.
For test [8], the system named is UACC-257 melanoma.
Test [9] concerns OVCAR-3 ovarian.
Test [10] concerns HOP-92 NSCLC.
The test system of test [11] is SF-539 CNS.

For the compound `O=C1C(Cl)C(c2ccccc2)N1n1cnc2ccccc2c1=O` (stereo not given), the TGI in test [1] was over 100 µM; in test [2], 82.4 µM; in test [3] it was over 100 µM; in test [4], over 100 µM; in test [5] it was over 100 µM; in [6] it was over 100 µM. In addition, the TGI in test [7], in test [8] and in [9] was over 100 µM throughout.

As to `C/C(=C1/CCCC2(N=NCC2c2ccccc2)C1=O)c1ccccc1` (stereo not given), the TGI in [1] was 47.7 µM; in test [10] it was over 100 µM; in test [2] it was 99.7 µM; in test [3], 29 µM; in test [4], over 100 µM; in test [5] it was 53.3 µM. The TGI in test [11] was over 100 µM; in test [6] it was over 100 µM; in test [7], over 100 µM; in test [8], 52.7 µM; in [9] it was 40.3 µM.

Turning to `CCOC(=O)C(N=Nc1ccc(S(N)(=O)=O)cc1)C(C)=O` (stereo not given), the TGI in test [1], in test [10], in [2], in [3], in test [4] and in test [5] was over 100 µM in each case. Further, the TGI in test [11], in [6], in test [7], in [8] and in test [9] was over 100 µM throughout.

Consider `COC(=O)C12C3C4C5(C(=O)OC)C(C1C35C(=O)N(C(C)C)C(C)C)C42C(=O)N(C(C)C)C(C)C` (stereo not given), for which the TGI in test [1] is over 50 µM; in test [10], over 50 µM; in test [2], over 50 µM; in test [3] it was over 50 µM; in test [4], over 50 µM; in test [5] it was 33.6 µM. In addition, the TGI in test [11], in test [6], in test [7], in test [8] and in test [9] was over 50 µM in each case.

For the compound `Cc1ccc2c(c1CCCC(C)(C)O)C(=O)C(=O)C(C(C)C)=C2O`, the TGI in [10], in [2], in [3], in [4], in [5] and in test [11] was over 100 µM in each case. Besides, the total growth inhibition concentration (TGI) in test [6], in test [7] and in test [9] was over 100 µM in each case.

Take `COc1cc2c(cc1OCc1ccccc1)CNCC2`: the TGI in test [1], in test [10], in test [2], in [3], in test [4] and in [5] was over 100 µM throughout. The TGI in [11], in test [6], in test [7], in test [8] and in test [9] was over 100 µM in each case.

With `COc1ccc(C(=O)C(CO)Oc2ccccc2OC)cc1OC` (stereo not given), the TGI in test [1], in test [2], in test [3], in test [4], in test [5] and in test [11] was over 100 µM throughout. The TGI in [6], in test [7], in test [8] and in test [9] was over 100 µM throughout.

Regarding `Cc1cn(C2CC(N(O)Cc3ccccc3)C(CO)O2)c(=O)[nH]c1=O` (stereo not given), the TGI in test [1], in test [2], in test [3], in test [4], in [5] and in test [11] was over 100 µM in each case. The TGI in test [6], in test [7], in test [8] and in [9] was over 100 µM each time.

For the compound `Cc1ccc(C2CC(c3ccco3)=NN2c2ccccc2)o1` (stereo not given), the TGI in test [1], in [2], in [3], in [4], in test [5] and in test [11] was over 100 µM in each case. Besides, the TGI in test [7] and in test [9] was over 100 µM each time.

Regarding `C=CCn1c(=O)n(CC=C)c(=O)n(CC=C)c1=O`, the TGI in [1], in test [10], in test [3], in test [4], in test [5] and in [11] was over 100 µM in each case. Moreover, the TGI in test [6], in test [7], in [8] and in [9] was over 100 µM throughout.

With `COc1c(C)c2c(c(C)c1Cl)Oc1c(C=O)c(O)c(Cl)c(C)c1C(=O)O2`, the TGI was 63 µM in [1]; 79.7 µM in [2]; over 100 µM in [3]; over 100 µM in test [4]; 61.9 µM in [5]; 39.7 µM in [11]. Also, the TGI in [6] is 69.8 µM; in [7] it was over 100 µM; in test [8], over 100 µM; in test [9], 30.8 µM.

The values above are taken from PubChem BioAssay (NCI).
